Laboratory results: US5057146A (priority 1986, dated 1991)

Columns and labels:
Puccinia recondita = assay: foliar fungal disease control, Puccinia recondita on wheat; type: in vivo; conditions: 100 ppm foliar spray plus root drench approx. 40 ppm a.i./dry soil
Experimental: (§1) The compounds were tested against a variety of foliar fungal diseases of plants. The technique employed was as follows.
(§2) The plants were grown in John Innes Potting Compost (No 1 or 2) in 4 cm diameter minipots. The test compounds were formulated either by bead milling with aqueous Dispersol T or as a solution in acetone or acetone/ethanol which was diluted to the required concentration immediately before use. […] The sprays were applied to maximum retention and the root drenches to a final concentration equivalent to approximately 40 ppm a.i./dry soil. Tween 20, to give a final concentration of 0.05%, was added when the sprays were applied to cereals.
(§3) For most of the tests the compound was applied to the soil (roots) and to the foliage (by spraying) one or two days before the plant was inoculated with the disease. An exception was the test on Erysiphe graminis in which the plants were inoculated 24 hours before treatment. Foliar pathogens were applied by spray as spore suspensions onto the leaves of test plants. After inoculation, the plants were put into an appropriate environment to allow infection to proceed and then incubated until the disease was ready for assessment. The period between inoculation and assessment varied from four to fourteen days according to the disease and environment.
(§4) The disease control was recorded by the following grading: […]

Cercospora arachidicola = assay: foliar fungal disease control, Cercospora arachidicola on peanut; type: in vivo; conditions: 100 ppm foliar spray plus root drench approx. 40 ppm a.i./dry soil
Experimental: as §1, §2, §3, §4

[1] = test system: Chilo partellus (maize stem borers); assay: pest mortality, Chilo partellus, residual test; type: in vivo; conditions: 500 ppm, oil seed rape leaf, duration 3 days
Experimental: (§5) The activity of each compound was determined using a variety of insect mites and nematode pests. The compound was used in the form of liquid preparations containing from 100 to 500 parts per million (ppm) by weight of the compound. The preparations were made by dissolving the compound in acetone and diluting the solutions with water containing 0.1% by weight of a wetting agent sold under the trade name "SYNPERONIC" NX until the liquid preparations contained the required concentration of the product. "SYNPERONIC" is a Registered Trade Mark.
(§6) The test procedure adopted with regard to each pest was basically the same and comprised supporting a number of the pests on a medium which was usually a host plant or a food stuff on which the pests feed, and treating either or both the pests and the medium with the preparations. The mortality of the pests was then assessed at periods usually varying from one to seven days after the treatment. […]

[2] = test system: Diabrotica balteata (rootworm larvae); assay: pest mortality, Diabrotica balteata, residual test; type: in vivo; conditions: 500 ppm, filter paper/maize seed, duration 3 days
Experimental: as §5, §6

Pyricularia oryzae = type: in vivo, Pyricularia oryzae (rice); conditions: 100 ppm foliar spray plus root drench approx. 40 ppm a.i./dry soil
Plasmopara viticola = assay: foliar fungal disease control, Plasmopara viticola on vine; type: in vivo; conditions: 100 ppm foliar spray plus root drench approx. 40 ppm a.i./dry soil
Experimental: as §1, §2, §3, §4

[3] = test system: Tetranychus uritcae (spider mites and ova); assay: pest mortality, Tetranychus uritcae, contact test; type: in vivo; conditions: 500 ppm, French bean leaf, duration 3 days
Experimental: as §5, §6

Venturia inaequalis = assay: foliar fungal disease control, Venturia inaequalis on apple; type: in vivo; conditions: 100 ppm foliar spray plus root drench approx. 40 ppm a.i./dry soil
Experimental: as §1, §2, §3, §4

[4] = test system: Musca domestica (houseflies - adults); assay: pest mortality, Musca domestica, contact test; type: in vivo; conditions: 500 ppm, cotton wool/sugar, duration 1 day
Experimental: as §5, §6

Erysiphe graminis hordei = assay: foliar fungal disease control, Erysiphe graminis hordei on barley; type: in vivo; conditions: 100 ppm foliar spray plus root drench approx. 40 ppm a.i./dry soil; inoculated 24 hours before treatment
Experimental: as §1, §2, §3, §4

Phytophthora infestans = type: in vivo, Phytophthora infestans (tomato); conditions: 100 ppm foliar spray plus root drench approx. 40 ppm a.i./dry soil

Structure (SMILES)	disease control grading, Puccinia recondita (wheat) (Puccinia recondita)	disease control grading, Cercospora arachidicola (peanut) (Cercospora arachidicola)	grading of mortality, CP [1]	grading of mortality, DB [2]	disease control grading, Pyricularia oryzae (rice) (Pyricularia oryzae)	disease control grading, Plasmopara viticola (vine) (Plasmopara viticola)	grading of mortality, TUe [3]	disease control grading, Venturia inaequalis (apple) (Venturia inaequalis)	grading of mortality, MD [4]	disease control grading, Erysiphe graminis hordei (barley) (Erysiphe graminis hordei)	disease control grading, Phytophthora infestans (tomato) (Phytophthora infestans)
CO/C=C(/C(=O)OC)c1ccccc1Oc1ccc(Cl)cn1 [Compound 14 (Table I), (E)-methyl 2-[2'-(5"-chloropyridin-2"-yloxy)phenyl]-3-methoxyacrylate]	4	4	9 (80-100% mortality)	5 (50-79% mortality)	4	4	0 (less than 50% mortality)	2 (6-25% of disease on untreated plants)	9 (80-100% mortality)	4	–
CO/C=C(/C(=O)OC)c1ccccc1Oc1ccc(Br)cn1 [Compound 15 (Table I)]	4	3 (trace-5% of disease on untreated plants)	–	9 (80-100% mortality)	3 (trace-5% of disease on untreated plants)	4	0 (less than 50% mortality)	–	0 (less than 50% mortality)	4	–
CO/C=C(/C(=O)OC)c1ccccc1Oc1cc(Cl)nc(Cl)n1 [Compound 140 (Table I)]	2 (6-25% of disease on untreated plants)	0 (60-100% of disease on untreated plants)	–	–	0 (60-100% of disease on untreated plants)	4	–	0 (60-100% of disease on untreated plants)	–	0 (60-100% of disease on untreated plants)	0 (60-100% of disease on untreated plants)
CO/C=C(/C(=O)OC)c1ccccc1Oc1ccc2ccccc2n1 [Compound 165 (Table I)]	2 (6-25% of disease on untreated plants)	4	–	–	2 (6-25% of disease on untreated plants)	4	–	4	–	4	3 (trace-5% of disease on untreated plants)
CO/C=C(/C(=O)OC)c1ccccc1Oc1nc(C)cc(Cl)n1 [Compound 166 (Table I)]	4	4	–	–	1 (26-59% of disease on untreated plants)	3 (trace-5% of disease on untreated plants)	–	4	–	4	3 (trace-5% of disease on untreated plants)
